From BindingDB's records for doi:10.1021/jm900130m (Universita Del Piemonte Orientale, 2009)

Experiments:
Cannabinoid receptor 2 = Cannabinoid receptor 2 (Homo sapiens, UniProt P34972); test: CB Receptor Radioligand Binding Assay (Ki)
Experimental: IC50 values for test compounds were determined from nonlinear regression analysis of data collected from ligand displacement experiments. The inhibition constant (Ki) was calculated from IC50 value by the Cheng and Prusoff equation.

[1] = molecular target: Transient receptor potential cation channel subfamily V member 1 (Homo sapiens, UniProt Q8NER1); test: TRPV1 Channel Activity Assay
Experimental: The effect of the substances on Ca2+ influx was determined by using HEK-293 cells stably overexpressing recombinant human TRPV1 cDNA. The cells were loaded with Fluo-4, a selective intracellular fluorescent probe for Ca2+. Experiments were carried out by measuring cell fluorescence before and after the addition of the test compounds at various concentrations. Agonist activity was determined in comparison to the maximum Ca2+ influx due to the application of 4 uM ionomycin. EC50 values were determined as the concentration of test substances required to produce half-maximal increases in [Ca2+]i. All determinations were at least performed in triplicate. Curve fitting (sigmoidal dose-response variable slope) and parameter estimation were performed with GraphPad Prism (GraphPad Software Inc., San Diego, CA).

Transient receptor potential cation channel subfamily V member 1, sequence (Q8NER1 whole entry): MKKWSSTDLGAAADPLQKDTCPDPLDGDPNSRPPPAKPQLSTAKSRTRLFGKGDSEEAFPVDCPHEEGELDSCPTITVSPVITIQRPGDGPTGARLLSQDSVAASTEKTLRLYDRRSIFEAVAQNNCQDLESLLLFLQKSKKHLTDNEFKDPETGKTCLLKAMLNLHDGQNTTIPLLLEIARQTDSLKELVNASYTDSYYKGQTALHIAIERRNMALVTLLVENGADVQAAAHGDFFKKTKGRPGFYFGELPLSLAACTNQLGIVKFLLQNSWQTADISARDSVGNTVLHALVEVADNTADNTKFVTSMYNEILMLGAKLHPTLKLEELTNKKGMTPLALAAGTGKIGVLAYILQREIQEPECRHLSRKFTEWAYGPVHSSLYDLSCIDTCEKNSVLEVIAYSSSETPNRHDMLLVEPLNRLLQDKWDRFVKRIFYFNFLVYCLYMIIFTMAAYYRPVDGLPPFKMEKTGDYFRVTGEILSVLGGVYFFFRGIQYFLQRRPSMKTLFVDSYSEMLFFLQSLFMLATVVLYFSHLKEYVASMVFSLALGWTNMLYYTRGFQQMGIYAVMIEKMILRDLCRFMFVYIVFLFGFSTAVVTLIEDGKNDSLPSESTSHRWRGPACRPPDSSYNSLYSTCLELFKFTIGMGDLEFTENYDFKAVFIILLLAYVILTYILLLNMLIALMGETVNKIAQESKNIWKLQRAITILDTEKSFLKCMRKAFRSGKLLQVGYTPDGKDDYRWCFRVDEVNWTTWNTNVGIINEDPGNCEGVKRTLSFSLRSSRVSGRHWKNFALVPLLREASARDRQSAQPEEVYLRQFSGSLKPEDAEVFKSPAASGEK
Cannabinoid receptor 2, sequence (P34972 whole entry): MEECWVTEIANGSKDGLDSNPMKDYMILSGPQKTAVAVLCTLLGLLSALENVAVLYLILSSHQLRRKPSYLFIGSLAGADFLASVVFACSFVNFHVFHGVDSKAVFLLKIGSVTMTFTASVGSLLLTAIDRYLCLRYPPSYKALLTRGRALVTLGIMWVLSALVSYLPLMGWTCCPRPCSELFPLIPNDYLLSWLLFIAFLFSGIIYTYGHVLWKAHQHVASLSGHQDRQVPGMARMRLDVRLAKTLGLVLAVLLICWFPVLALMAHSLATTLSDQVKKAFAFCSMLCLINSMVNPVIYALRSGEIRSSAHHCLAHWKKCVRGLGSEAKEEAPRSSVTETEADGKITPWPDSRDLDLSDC

| Structure (SMILES) | Ki (Cannabinoid receptor 2) [nM] | EC50 [1] [nM] |
| --- | --- | --- |
| CCCCCCCC/C=C\CCCCCCCC(=O)N[C@H]1C[C@@H]1O [cyclopropanolamide, 11b] | 2420 | 19 |
| CCCCCCCC/C=C\CCCCCCCC(=O)N[C@H]1C[C@H]1O [cyclopropanolamide, 14b] | 1630 | 180 |
